Test results as given in patent publication US8648094B2, “IAP BIR domain binding compounds” (Pharmascience, Inc., priority 2006, dated 2014).

tested on: SKOV-3 cells; assay: Survival MTT assay; type: cell-based; details: Homo sapiens, SK-OV-3, 72 hours
Procedure: One day prior the treatment with compound, 2000 to 4000 cells per well were plated in a tissue culture treated 96 well format dish with 100 uL of media and incubated at 37° C., 5% CO2. On the day of compound treatment, compounds were diluted with cell culture media to a working stock concentration of 2×. 100 ul of diluted compound were then added to each well. The treated plate was incubated for 72 hours at 37° C., 5% CO2. Upon incubation, the cell viability was assessed as follows; 20 uL of MTT reagent (5 mg/mL) were added per well to cell plate. The plate was incubated for 2 hrs at 37° C. in presence of 5% CO2. The supernatant was then removed from the plate and 100 uL of isopropanol was added. The absorbance was measured in a TECAN spectrophotometer at 570 nm. The percentage of viability was expressed in percentage of the signal obtained with non treated cells.

Q: With `CN[C@@H](C)C(=O)N[C@H](C(=O)N1CCC[C@H]1CN(CCc1ccccc1)S(=O)(=O)c1ccc(-c2ccc(S(=O)(=O)N(CCc3ccccc3)C[C@@H]3CCCN3C(=O)[C@@H](NC(=O)[C@H](C)NC)C(C)(C)C)cc2)cc1)C(C)(C)C` [Compound 13] as the compound, how does the EC50 read?
A: 10 to 25 nM

Q: How did the EC50 turn out when `CN[C@@H](C)C(=O)N[C@H](C(=O)N1CCC[C@H]1CN(CCc1ccccc1)S(=O)(=O)c1cccc(S(=O)(=O)N(CCc2ccccc2)C[C@@H]2CCCN2C(=O)[C@@H](NC(=O)[C@H](C)NC)C(C)(C)C)c1)C(C)(C)C` [Compound 36] was run?
A: < 10 nM

Q: With `CN[C@@H](C)C(=O)N[C@H](C(=O)N1CCC[C@H]1CN(C[C@@H](C)c1ccccc1)C(=O)CCCCCCCCC(=O)N(C[C@@H]1CCCN1C(=O)[C@@H](NC(=O)[C@H](C)NC)C(C)(C)C)C[C@@H](C)c1ccccc1)C(C)(C)C` [Compound 22] as the compound, how does the EC50 read?
A: > 25 nM

Q: How did the EC50 turn out when `CN[C@@H](C)C(=O)N[C@H](C(=O)N1CCC[C@H]1CN(CCc1ccccc1)C(=O)[C@H]1CCCN1C(=O)c1ccc(C(=O)N2CCC[C@@H]2C(=O)N(CCc2ccccc2)C[C@@H]2CCCN2C(=O)[C@@H](NC(=O)[C@H](C)NC)C(C)(C)C)cc1)C(C)(C)C` [Compound 81] was run?
A: > 25 nM

Q: How did the EC50 turn out when `CN[C@@H](C)C(=O)N[C@H](C(=O)N1CCC[C@H]1CN(CCc1ccccc1)C(=O)CCCC(=O)N(CCc1ccccc1)C[C@@H]1CCCN1C(=O)[C@@H](NC(=O)[C@H](C)NC)C(C)(C)C)C(C)(C)C` [Compound 3] was run?
A: 10 to 25 nM

Q: With `CN[C@@H](C)C(=O)N[C@H](C(=O)N1CCC[C@H]1CN(CCc1ccc(F)cc1)C(=O)CCC(=O)N(CCc1ccc(F)cc1)C[C@@H]1CCCN1C(=O)[C@@H](NC(=O)[C@H](C)NC)C(C)(C)C)C(C)(C)C` [Compound 48] as the compound, how does the EC50 read?
A: 10 to 25 nM

Q: `CN[C@@H](C)C(=O)N[C@H](C(=O)N1CCC[C@H]1CN(CCc1ccccc1)C(=O)c1ccc(-c2ccc(C(=O)N(CCc3ccccc3)C[C@@H]3CCCN3C(=O)[C@@H](NC(=O)[C@H](C)NC)C(C)(C)C)cc2)cc1)C(C)(C)C` [Compound 4] was tested. Which EC50 did it give?
A: < 10 nM

Q: How did the EC50 turn out when `CN[C@@H](C)C(=O)N[C@H](C(=O)N1CCC[C@H]1CN(CCc1ccccc1)C(=O)CCCCCCC(=O)N(CCc1ccccc1)C[C@@H]1CCCN1C(=O)[C@@H](NC(=O)[C@H](C)NC)C(C)(C)C)C(C)(C)C` [Compound 7] was run?
A: 10 to 25 nM

Q: Which EC50 does the source give for `CN[C@@H](C)C(=O)N[C@H](C(=O)N1CCC[C@H]1CN(CCc1ccccc1)C(=O)CCCCCCCCC(=O)N(CCc1ccccc1)C[C@@H]1CCCN1C(=O)[C@@H](NC(=O)[C@H](C)NC)C(C)(C)C)C(C)(C)C` [Compound 2] here?
A: < 10 nM

Q: For `CN[C@@H](C)C(=O)N[C@H](C(=O)N1CCC[C@H]1CN(CCc1ccc(F)cc1)C(=O)CNC(=O)c1ccc(-c2ccc(C(=O)NCC(=O)N(CCc3ccc(F)cc3)C[C@@H]3CCCN3C(=O)[C@@H](NC(=O)[C@H](C)NC)C(C)(C)C)cc2)cc1)C(C)(C)C` [Compound 76], which EC50 is on record?
A: < 10 nM

Q: `CN[C@@H](C)C(=O)N[C@H](C(=O)N1CCC[C@H]1C(=O)N(CCc1ccccc1)Cc1ccc(CN(CCc2ccccc2)C(=O)[C@@H]2CCCN2C(=O)[C@@H](NC(=O)[C@H](C)NC)C(C)(C)C)cc1)C(C)(C)C` [Compound 79] was tested. Which EC50 did it give?
A: 10 to 25 nM

Q: Which EC50 does the source give for `CN[C@@H](C)C(=O)N[C@H](C(=O)N1CCC[C@H]1CN(CCc1ccccc1)C(=O)CN(C)C(=O)c1ccc(-c2ccc(C(=O)N(C)CC(=O)N(CCc3ccccc3)C[C@@H]3CCCN3C(=O)[C@@H](NC(=O)[C@H](C)NC)C(C)(C)C)cc2)cc1)C(C)(C)C` [Compound 77] here?
A: 10 to 25 nM

Q: With `CN[C@@H](C)C(=O)N[C@H](C(=O)N1CCC[C@H]1CN(CCc1ccc(F)cc1)C(=O)CNC(=O)c1cccc(C(=O)NCC(=O)N(CCc2ccc(F)cc2)C[C@@H]2CCCN2C(=O)[C@@H](NC(=O)[C@H](C)NC)C(C)(C)C)c1)C(C)(C)C` [Compound 83] as the compound, how does the EC50 read?
A: < 10 nM

Q: How did the EC50 turn out when `CN[C@@H](C)C(=O)N[C@H](C(=O)N1CCC[C@H]1CN(CCc1ccccc1)C(=O)[C@H](C)NC(=O)c1ccc(C(=O)N[C@@H](C)C(=O)N(CCc2ccccc2)C[C@@H]2CCCN2C(=O)[C@@H](NC(=O)[C@H](C)NC)C(C)(C)C)cc1)C(C)(C)C` [Compound 62] was run?
A: > 25 nM

Q: With `CN[C@@H](C)C(=O)N[C@H](C(=O)N1CCC[C@H]1CN(CCc1ccc(F)cc1)C(=O)CNC(=O)c1ccc(C(=O)NCC(=O)N(CCc2ccc(F)cc2)C[C@@H]2CCCN2C(=O)[C@@H](NC(=O)[C@H](C)NC)C(C)(C)C)cc1)C(C)(C)C` [Compound 71] as the compound, how does the EC50 read?
A: < 10 nM

Q: Which EC50 does the source give for `CN[C@@H](C)C(=O)N[C@H](C(=O)N1CCC[C@H]1CN(CCc1ccccc1)C(=O)CNC(=O)c1ccc2ccc(C(=O)NCC(=O)N(CCc3ccccc3)C[C@@H]3CCCN3C(=O)[C@@H](NC(=O)[C@H](C)NC)C(C)(C)C)cc2c1)C(C)(C)C` [Compound 85] here?
A: < 10 nM

Q: Which EC50 does the source give for `CN[C@@H](C)C(=O)N[C@H](C(=O)N1CCC[C@H]1CN(CCc1ccccc1)C(=O)CN(C)Cc1ccc(CN(C)CC(=O)N(CCc2ccccc2)C[C@@H]2CCCN2C(=O)[C@@H](NC(=O)[C@H](C)NC)C(C)(C)C)cc1)C(C)(C)C` [Compound 43] here?
A: 10 to 25 nM

Q: Which EC50 does the source give for `CN[C@@H](C)C(=O)N[C@H](C(=O)N1CCC[C@H]1CN(CCc1ccccc1)C(=O)[C@@H](C)NC(=O)c1ccc(C(=O)N[C@H](C)C(=O)N(CCc2ccccc2)C[C@@H]2CCCN2C(=O)[C@@H](NC(=O)[C@H](C)NC)C(C)(C)C)cc1)C(C)(C)C` [Compound 59] here?
A: < 10 nM

Q: How did the EC50 turn out when `CN[C@@H](C)C(=O)N[C@@H](CC1CCCCC1)C(=O)N1CCC[C@H]1CN(CCc1ccccc1)C(=O)CCCCCCCCC(=O)N(CCc1ccccc1)C[C@@H]1CCCN1C(=O)[C@H](CC1CCCCC1)NC(=O)[C@H](C)NC` [Compound 9] was run?
A: > 25 nM

Q: With `CN[C@@H](C)C(=O)N[C@H](C(=O)N1CCC[C@H]1CN(CCc1ccccc1)C(=O)CNC(=O)c1cccc(C(=O)NCC(=O)N(CCc2ccccc2)C[C@@H]2CCCN2C(=O)[C@@H](NC(=O)[C@H](C)NC)C(C)(C)C)n1)C(C)(C)C` [Compound 88] as the compound, how does the EC50 read?
A: > 25 nM

Q: `CN[C@@H](C)C(=O)N[C@H](C(=O)N1CCC[C@H]1CN(CCc1ccccc1)S(=O)(=O)c1ccc2ccc(S(=O)(=O)N(CCc3ccccc3)C[C@@H]3CCCN3C(=O)[C@@H](NC(=O)[C@H](C)NC)C(C)(C)C)cc2c1)C(C)(C)C` [Compound 90] was tested. Which EC50 did it give?
A: 10 to 25 nM

Q: `CN[C@@H](C)C(=O)N[C@H](C(=O)N1CCC[C@H]1CN(CCc1ccccc1F)C(=O)CCCCCCCCC(=O)N(CCc1ccccc1F)C[C@@H]1CCCN1C(=O)[C@@H](NC(=O)[C@H](C)NC)C(C)(C)C)C(C)(C)C` [Compound 46] was tested. Which EC50 did it give?
A: < 10 nM

Q: For `CN[C@@H](C)C(=O)N[C@H](C(=O)N1CCC[C@H]1CN(CCc1ccccc1)C(=O)c1ccc(C(=O)N(CCc2ccccc2)C[C@@H]2CCCN2C(=O)[C@@H](NC(=O)[C@H](C)NC)C(C)(C)C)cc1)C(C)(C)C` [Compound 1], which EC50 is on record?
A: 10 to 25 nM

Q: Which EC50 does the source give for `CN[C@@H](C)C(=O)N[C@H](C(=O)N1CCC[C@H]1CN(CCc1ccccc1)C(=O)c1ccc(-c2cccc(C(=O)N(CCc3ccccc3)C[C@@H]3CCCN3C(=O)[C@@H](NC(=O)[C@H](C)NC)C(C)(C)C)c2)cc1)C(C)(C)C` [Compound 64] here?
A: 10 to 25 nM

Q: Which EC50 does the source give for `CN[C@@H](C)C(=O)N[C@H](C(=O)N1CCC[C@H]1CN(CCc1ccccc1)S(=O)(=O)c1ccc2cc(S(=O)(=O)N(CCc3ccccc3)C[C@@H]3CCCN3C(=O)[C@@H](NC(=O)[C@H](C)NC)C(C)(C)C)ccc2c1)C(C)(C)C` [Compound 92] here?
A: < 10 nM

Q: `CN[C@@H](C)C(=O)N[C@H](C(=O)N1CCC[C@H]1CN(CCc1ccccc1)C(=O)c1ccc(Oc2ccc(C(=O)N(CCc3ccccc3)C[C@@H]3CCCN3C(=O)[C@@H](NC(=O)[C@H](C)NC)C(C)(C)C)cc2)cc1)C(C)(C)C` [Compound 27] was tested. Which EC50 did it give?
A: > 25 nM
